Two compounds from patent publication US11707449B2, “Methods and formulations for treatment of spinobulbar muscular atrophy” (ST. JUDE CHILDREN'S RESEARCH HOSPITAL, INC., priority 2017, dated 2023) can be followed below.

Data set [1] is described as follows: Pharmacokinetics of MEPB and TA in plasma and tissues after a single intraperitoneal injection. Type of data set: in vivo, male FVB/NJ mice. The following applies: for bioavailability in muscle, brain, and spinal cord / bioavailability in SBMA-affected tissues: mice. The method, then: MEPB and TA concentrations in plasma, liver, muscle, testes, brain, and spinal cord of male FVB/NJ mice were measured at multiple time points (5 min to 48 h) after a single intraperitoneal injection of either 100 mg/kg body weight MEPB or 50 mg/kg body weight TA. MEPB or TA and the internal standard (IS) SLV320 (Tocris Biosciences) were extracted from plasma and tissue homogenate samples with methyl tert-butyl ether. A 25-μL aliquot of sample was mixed with 10 μL IS (100 ng/mL). To this, 600 μL methyl tert-butyl ether was added and vortexed for 5 min. After centrifugation at 10,000 rpm for 5 min, the organic layer was then transferred to a glass vial and dried in a CentriVap Console (Labconco) at 35° C. for 25 min. The dried extracts were then reconstituted with 400 μL methanol, and an aliquot of 3 μL was injected onto the chromatographic system. All chemicals were HPLC grade or higher and were obtained from Fisher Scientific (Fair Lawn) unless otherwise specified. Quantitation of MEPB and TA was performed using an API 4000 mass spectrometer (AB SCIEX) equipped with a Prominence Ultra-Fast Liquid Chromatograph (UFLCXR) system (Shimadzu). […] Mass spectrometric analysis was performed with the turbo ion spray in positive ionization mode. All MS data were acquired using Analyst 1.5.2 software and processed using MultiQuant 2.1.1 software (SCIEX).
For all matrices (plasma, liver, muscle, testes, brain, and spinal cord), the lower limit of quantification (LLOQ) of MEPB was 2.5 ng/mL with a calibration range of 2.5 ng/mL to 100 ng/mL. However, due to dilution during homogenization, the effective LLOQ was 15 ng/mL for solid tissues. The LLOQ of TA was 5 ng/mL for plasma and 60 ng/mL for tissues. […] The MEPB concentration-time (Ct) data for liver, muscle, testes, brain, and spinal cord were grouped by mouse and analyzed using a two-stage, semiphysiologic, nonlinear mixed effects approach with maximum likelihood expectation maximization in ADAPT 5. The pooled arithmetic mean Ct data were subjected to noncompartmental analysis by tissue using WinNonlin 6.4 (Pharsight, a Cetara Company). All PK parameters were calculated using standard formulae^43. Parameters estimated for all matrices included observed maximum concentration (Cmax), time of Cmax (Tmax), concentration at the last observed time point (Clast), time of Clast (Tlast), and area under the Ct curve (AUC). When applicable, the terminal phase was defined as the three time points at the end of the Ct profile, excluding Cmax, and the elimination rate constant (Kel) was estimated using an unweighted log-linear regression of the terminal phase. The terminal elimination half-life (T½) was estimated as 0.693/Kel, and the AUC from time 0 to infinity ([…]) was estimated as the AUC to the last time point (AUClast)+Clast/Ke. Apparent clearance (CL/F=Dose/AUCinf), and apparent terminal volume of distribution (Vz/F) were also calculated.

Data set [2] concerns AR121Q mice. Briefly: Pilot preclinical trial in AR121Q (SBMA) mice. It counts as in vivo, mouse. The settings on record: male SBMA mice; 50 mg/kg intraperitoneally three times per week, 3 to 8 weeks of age. The method, then:
To determine the efficacy of TA and/or MEPB in a mouse model of SBMA, we first performed a pilot study. Five mice were assigned to each drug treatment group: 50 mg/kg TA, 50 mg/kg MEPB, or vehicle (1% DMSO in corn oil). Drug identities were coded to ensure investigator blinding, and drugs were administered three times per week (Monday, Wednesday, and Friday) by intraperitoneal injection from 3 to 8 weeks of age. At 8 weeks, all mice were sacrificed and tissues were collected for pathologic analysis. To fully characterize the efficacy of MEPB in SBMA mice, a large-scale, multi-dose preclinical trial was performed. A power analysis (Table 1) was performed based on the pilot study data to determine the adequate number of mice required for 80% power. At least 10 mice were assigned to each drug treatment group: 50 mg/kg MEPB, 100 mg/kg MEPB, and vehicle (1% DMSO in corn oil). Drug identities were coded to ensure investigator blinding, and drugs were administered three times per week (Monday, Wednesday, and Friday) by intraperitoneal injections from 4 weeks until 30 weeks of age.
Body weight, rotarod activity, and grip strength data were collected weekly. Footprint analysis and clasping phenotype were assessed at 7 and 8 weeks of age. Body weight was measured using a standard laboratory scale (Fisher Scientific). Rotarod activity analysis was performed on an accelerating rotarod apparatus (IITC Life Science) using a two-day, weekly protocol. Mice were trained on the first day with one session set at 4 rpm for 5 min. The following day, mice were placed on the apparatus, rotation speed was set to accelerate from 4-40 rpm at a rate of 0.1 rpm/s, and the latency to fall was recorded for four separate trials per mouse. Mice were given a 15-min rest period between each trial. Grip strength was measured using a grip strength meter (Bioseb). Grip strength was measured as grams of force in six repeated measurements for forepaws and hindpaws of each animal. To perform gait/footprint analysis, the forepaws and hindpaws of each animal were dipped in red and blue, respectively, water-soluble, non-toxic paint. The animal was then placed in a 70-cm long tunnel lined on the bottom with Whatman filter paper, the entrance was sealed, and the animal was allowed to walk through one time. Footprints were scanned and analyzed with Image J for stride length and forepaw/hindpaw overlap^41. To determine clasping phenotype, mice were recorded using an Apple iPod camera (iOS version 6.1.6) for approximately 60 seconds and still frames were extracted using ImageJ.
A separate cohort of five mice per treatment group was generated for pathologic and biochemical analysis. Mice were anesthetized by isoflurane inhalation and transcardially perfused with either PBS for frozen tissue samples or 10% formalin for fixed tissue samples. Selected tissues (brain, spinal cord, gastrocnemius/soleus muscle, testes, and liver) were dissected and either snap-frozen in liquid nitrogen or processed for paraffin embedding/sectioning. Tissue sections were stained with hematoxylin and eosin, toluidine blue, or Gomori trichrome to ascertain overall morphology and pathologic changes. To determine AR staining and colocalization patterns, tissue sections were stained with anti-AR (N20, Santa Cruz), anti-polyQ (5TF1-1C2, EMD Millipore), or anti-ubiquitin (Cell Signaling Technology) antibodies. To quantify type I and type II myofibers, hindlimb tissue sections were stained with myosin heavy chain-slow twitch and myosin heavy chain-fast twitch antibodies (Leica Biosystems), respectively. For the purposes of counting ChAT-positive neurons, three stepped sections separated by 50 μm were analyzed for the cervical, thoracic, and lumbosacral areas of spinal cords. The slides contained three to six tissue sections at each level and were labeled with an anti-ChAT antibody (EMD Millipore). […]

Where [3] appears, read: single intraperitoneal injection of 100 mg/kg MEPB or 50 mg/kg TA.

Values joined by “and” are separate entries in the source; they are usually repeats but may differ in a detail not shown here. Equal values may be shown once. Read-outs that look alike come from different tables or passages of the source.

The term Cmax denotes the peak of the concentration-time curve. What is called Tmax is the time at which the peak concentration occurs. As for `Cc1c(Cl)cccc1Nc1ccccc1C(=O)O` [TA, tolfenamic acid], the “Tlast (time of Clast)” value was found to be 4 h in data set [1] (TA in brain, single intraperitoneal injection of 50 mg/kg TA); 24 h in data set [1] (TA in liver, single intraperitoneal injection of 50 mg/kg TA); 8 h in data set [1] (TA in muscle, single intraperitoneal injection of 50 mg/kg TA); 48 h in data set [1] (TA in plasma, single intraperitoneal injection of 50 mg/kg TA); 4 h in data set [1] (TA in spinal cord, single intraperitoneal injection of 50 mg/kg TA); 8 h in data set [1] (TA in testis, single intraperitoneal injection of 50 mg/kg TA). Further, the Cmax in data set [1] (male, FVB/NJ, mouse, ip, TA conc. in brain, single intraperitoneal injection of 50 mg/kg TA) is 700 nM and 194 ng/mL; in data set [1] (male, FVB/NJ, mouse, ip, TA conc. in liver, single intraperitoneal injection of 50 mg/kg TA), 260 µM and 67600 ng/mL; in data set [1] (male, FVB/NJ, mouse, ip, TA conc. in muscle, single intraperitoneal injection of 50 mg/kg TA), 4.8 µM and 1250 ng/mL; in data set [1] (male, FVB/NJ, mouse, ip, TA conc. in plasma, single intraperitoneal injection of 50 mg/kg TA), 223 µM and 13400 ng/mL; in data set [1] (male, FVB/NJ, mouse, ip, TA conc. in spinal cord, single intraperitoneal injection of 50 mg/kg TA), 2.1 µM and 554 ng/mL; in data set [1] (male, FVB/NJ, mouse, ip, TA conc. in testis, single intraperitoneal injection of 50 mg/kg TA) it was 11.6 µM and 3030 ng/mL. The Tmax in data set [1] (male, FVB/NJ, mouse, ip, TA in brain, single intraperitoneal injection of 50 mg/kg TA) amounted to 1 h; in data set [1] (male, FVB/NJ, mouse, ip, TA in liver, single intraperitoneal injection of 50 mg/kg TA), 1 h; in data set [1] (male, FVB/NJ, mouse, ip, TA in muscle, single intraperitoneal injection of 50 mg/kg TA) it was 1 h; in data set [1] (male, FVB/NJ, mouse, ip, TA in plasma, single intraperitoneal injection of 50 mg/kg TA), 1 h; in data set [1] (male, FVB/NJ, mouse, ip, TA in spinal cord, single intraperitoneal injection of 50 mg/kg TA), 1 h; in data set [1] (male, FVB/NJ, mouse, ip, TA in testis, single intraperitoneal injection of 50 mg/kg TA), 1 h. For the same compound, the concentration at 4 hr in data set [1] (male, FVB/NJ, mouse, ip, TA in brain, single intraperitoneal injection of 50 mg/kg TA, read-out: Clast (concentration at the last observed time point)) turned out to be 66.7 ng/mL; in data set [1] (male, FVB/NJ, mouse, ip, TA in spinal cord, single intraperitoneal injection of 50 mg/kg TA, read-out: Clast (concentration at the last observed time point)), 84.6 ng/mL. In addition, the concentration at 24 hr in data set [1] (male, FVB/NJ, mouse, ip, TA in liver, single intraperitoneal injection of 50 mg/kg TA, read-out: Clast (concentration at the last observed time point)) was 508 ng/mL. Besides, the concentration at 8 hr amounted to 119 ng/mL in data set [1] (male, FVB/NJ, mouse, ip, TA in muscle, single intraperitoneal injection of 50 mg/kg TA, read-out: Clast (concentration at the last observed time point)) and 150 ng/mL in data set [1] (male, FVB/NJ, mouse, ip, TA in testis, single intraperitoneal injection of 50 mg/kg TA, read-out: Clast (concentration at the last observed time point)). Moreover, in data set [1] (male, FVB/NJ, mouse, ip, TA in plasma, single intraperitoneal injection of 50 mg/kg TA, read-out: Clast (concentration at the last observed time point)), the concentration at 48 hr amounted to 19.8 ng/mL. The “bioavailability in muscle, brain, and spinal cord” value in data set [1] is “poor bioavailability”. Also, the “bioavailability in SBMA-affected tissues” value in data set [1] (setting [3]) was “poor bioavailability”. The “any measurements of SBMA-associated degeneration” value in data set [2] is recorded as “did not significantly alter any measurements of SBMA-associated degeneration”.

In the case of `Cc1ccc(OCCn2c(SCCOc3ccccc3)nc3ccccc32)cc1` [MEPB, 1-[2-(4-methylphenoxy)ethyl]-2-[(2-phenoxyethyl)sulfanyl]-1H-benzimidazole], the “penetration and duration in muscle, spinal cord, and testes” value in data set [1] (NTG mice, single intraperitoneal injection of 100 mg/kg MEPB or 50 mg/kg TA) was “marked penetration and duration”. Besides, the “bioavailability in muscle, brain, and spinal cord” value in data set [1] is recorded as “good bioavailability”. Moreover, the “bioavailability in SBMA-affected tissues” value in data set [1] (setting [3]) is recorded as “sufficient bioavailability”. In data set [2], the body weight result was “significantly improved”; the “gait and hindlimb clasping” value was “improved gait and hindlimb clasping”; the grip strength entry is recorded as “significantly improved”; the “pathologic appearance of skeletal muscle and spinal cord degeneration” value is reported as “qualitatively recovered”. In addition, in data set [2], the rotarod activity entry is “significantly improved” and the survival result is given as “no significant change in survival”.
